Like-named read-outs stand apart in the source and are kept apart here.
Assays:
[1] = molecular target: T1, ACE-2 (Homo sapiens, UniProt Q9BYF1); assay: ACE-2 Competitive Substrate Assay (ACS Assay); assay type: biochemical
T1 construct: a stop codon inserted after the serine immediately preceding the transmembrane domain; made in house; host or cells: CHO K1 cells (transient transfection, purified from conditioned medium)

[2] = molecular target: T2, ACE (Sigma, A2580) (Sus scrofa, UniProt F1RRW5); assay: ACE enzymatic activity assay; assay type: biochemical, porcine; conditions: Ki class, compounds tested in 5% DMSO
T2 construct: ACE from porcine kidney; purchased Sigma A2580; host or cells: porcine kidney
T2 sequence (F1RRW5 34-1309): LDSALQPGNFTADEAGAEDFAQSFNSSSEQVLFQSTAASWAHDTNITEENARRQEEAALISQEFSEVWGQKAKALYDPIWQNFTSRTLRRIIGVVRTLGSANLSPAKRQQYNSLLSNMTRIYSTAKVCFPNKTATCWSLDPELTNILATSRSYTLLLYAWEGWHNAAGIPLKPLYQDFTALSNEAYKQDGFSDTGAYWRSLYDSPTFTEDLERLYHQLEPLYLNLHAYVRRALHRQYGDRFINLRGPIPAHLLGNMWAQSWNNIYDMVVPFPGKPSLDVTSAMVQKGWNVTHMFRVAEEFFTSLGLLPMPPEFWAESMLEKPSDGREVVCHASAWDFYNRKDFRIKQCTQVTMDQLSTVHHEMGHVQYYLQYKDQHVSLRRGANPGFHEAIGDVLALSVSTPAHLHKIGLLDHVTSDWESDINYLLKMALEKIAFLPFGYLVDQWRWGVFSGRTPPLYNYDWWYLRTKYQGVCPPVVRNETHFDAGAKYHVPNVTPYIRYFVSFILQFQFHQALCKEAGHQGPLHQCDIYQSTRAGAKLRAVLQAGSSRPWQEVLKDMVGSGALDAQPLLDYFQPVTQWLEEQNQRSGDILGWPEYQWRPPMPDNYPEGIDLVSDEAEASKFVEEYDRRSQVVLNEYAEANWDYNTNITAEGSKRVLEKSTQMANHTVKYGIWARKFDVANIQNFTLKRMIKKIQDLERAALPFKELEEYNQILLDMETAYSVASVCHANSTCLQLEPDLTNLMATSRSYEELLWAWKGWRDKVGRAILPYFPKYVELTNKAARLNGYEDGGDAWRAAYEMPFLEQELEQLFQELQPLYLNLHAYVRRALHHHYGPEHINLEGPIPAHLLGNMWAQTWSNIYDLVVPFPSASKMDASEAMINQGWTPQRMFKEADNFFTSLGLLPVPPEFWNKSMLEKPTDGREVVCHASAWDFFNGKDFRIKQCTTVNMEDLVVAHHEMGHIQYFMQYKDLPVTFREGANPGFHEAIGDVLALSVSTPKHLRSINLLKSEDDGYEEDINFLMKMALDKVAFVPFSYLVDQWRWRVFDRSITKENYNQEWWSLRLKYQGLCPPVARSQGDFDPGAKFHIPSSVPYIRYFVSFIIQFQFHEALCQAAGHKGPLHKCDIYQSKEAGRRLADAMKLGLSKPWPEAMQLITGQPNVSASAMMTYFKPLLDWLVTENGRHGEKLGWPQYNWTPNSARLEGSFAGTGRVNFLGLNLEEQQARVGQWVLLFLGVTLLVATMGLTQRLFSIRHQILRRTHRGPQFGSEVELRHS
Method: ACE (Sigma, A2580) enzymatic activity was assayed in microtiter plates using the following protocol. ACE assay buffer was made from 50 mM HEPES (Sigma), 300 mM sodium chloride (Sigma), and 0.01% Brij-35 (Pierce Chemical Co) at pH 7.5.
Reactions were mixed and incubated at 25° C. Enzymatic cleavage of the substrate is marked by a fluorescence change (excitation 330 nm, emission 415 nm).
The activity of the test compounds was investigated using the procedure outlined above. The compounds were tested in 5% DMSO. Enzyme activity was measured at 12 compound concentrations. […]. […]

[3] = molecular target: T3, Carboxypeptidase A (Bos taurus, UniProt P00730); assay: Carboxypeptidase A activity assay; assay type: biochemical; conditions: Ki class, compounds tested in 5% DMSO
T3 sequence (P00730 111-419): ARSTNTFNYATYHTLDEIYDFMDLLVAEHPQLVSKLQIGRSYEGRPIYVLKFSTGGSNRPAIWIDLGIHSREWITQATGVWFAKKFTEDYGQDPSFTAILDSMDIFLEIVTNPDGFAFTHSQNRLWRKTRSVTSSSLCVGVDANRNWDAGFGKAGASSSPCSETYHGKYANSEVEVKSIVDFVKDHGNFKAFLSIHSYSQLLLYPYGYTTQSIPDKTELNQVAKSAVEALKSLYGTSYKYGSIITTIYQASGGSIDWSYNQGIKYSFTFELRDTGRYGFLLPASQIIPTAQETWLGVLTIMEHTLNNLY
Method: Carboxypeptidase A activity was measured using a literature assay (Holmquist and Riordan, “Carboxypeptidase A,” Methods of Enzymatic Analysis (1984) p. 44–60). The assay was adapted to a 96 well format by adjusting to a 300 μL assay volume and using ultra-thin bottom plates (Costar/Corning) read at 328 nm. The assay was stopped using EDTA.
The activity of the test compounds was investigated using the procedure outlined above. The compounds were tested in 5% DMSO. Enzyme activity was measured at 12 compound concentrations. The Ki was calculated by using Ki=Kiapp/(1+[S]/Km).
To determine whether a test compound is capable of modulating carboxypeptidase A's ability to cleave a substrate the method described in Holmquist and Riordan, Carboxypeptidase A, p44–60, Peptidase and Their Inhibitors in Method of Enzymatic Analysis (1984), may be used.
The assay may be adapted to a 96 well format by adjusting to a 300 μl assay volume and using ultrathin bottom plates (Costar/Coming) read at 328 nm with a final assay volume of 300 μl. The assay may be stopped using EDTA.

[4] = Ki class, compounds tested in 5% DMSO, 12 concentrations, read-out: Human ACE-2 Activity

T1 sequence (Q9BYF1 18-740 limits assumed): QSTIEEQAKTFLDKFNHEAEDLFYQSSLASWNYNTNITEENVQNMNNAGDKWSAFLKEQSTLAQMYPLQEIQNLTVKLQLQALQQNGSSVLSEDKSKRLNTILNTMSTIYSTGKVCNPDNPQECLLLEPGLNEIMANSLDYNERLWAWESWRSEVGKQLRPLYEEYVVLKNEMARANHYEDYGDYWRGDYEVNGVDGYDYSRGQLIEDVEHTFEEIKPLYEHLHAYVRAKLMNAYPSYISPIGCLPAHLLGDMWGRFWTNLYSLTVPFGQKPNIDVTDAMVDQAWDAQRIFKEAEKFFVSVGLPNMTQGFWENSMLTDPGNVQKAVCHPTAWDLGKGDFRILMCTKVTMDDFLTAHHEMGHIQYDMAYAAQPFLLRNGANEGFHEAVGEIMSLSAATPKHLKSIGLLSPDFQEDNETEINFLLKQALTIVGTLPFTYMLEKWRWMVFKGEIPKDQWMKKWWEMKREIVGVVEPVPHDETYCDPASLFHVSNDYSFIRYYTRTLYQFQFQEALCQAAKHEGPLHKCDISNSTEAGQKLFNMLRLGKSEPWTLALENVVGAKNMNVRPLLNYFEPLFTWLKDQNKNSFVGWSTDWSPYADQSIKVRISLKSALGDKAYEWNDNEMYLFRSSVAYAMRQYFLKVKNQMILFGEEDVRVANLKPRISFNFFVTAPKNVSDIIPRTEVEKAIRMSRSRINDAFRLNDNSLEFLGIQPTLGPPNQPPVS

Compound | Ki [1, 4] [µM] | Ki ([2]; 12 concentrations) [µM] | Ki ([3]; 12 concentrations) [µM] | further results
Cc1ccc(C[C@H](CC(=O)O)NC(CC(C)C)C(=O)O)cc1 (stereo partly shown) [CS, 2-[2-Carboxy-1-(4-methyl-benzyl)-ethylamino]-4-methyl-pentanoic acid] | > 0.5 | > 50 | > 50 | 
O=C(O)C(CCc1ccccc1)N1CCC[C@H]1C(=O)O (stereo in doubt) [AC, 1-(1-Carboxy-3-phenyl-propyl)-pyrrolidine-2-carboxylic acid] | > 0.5 | > 50 | > 50 | 
CC(C)CC(N[C@H](CCc1ccccc1)CC(=O)O)C(=O)O (stereo partly shown) [CI, 2-(1-Carboxymethyl-3-phenyl-propylamino)-4-methyl-pentanoic acid] | > 0.5 | > 50 | > 50 | 
CC(C)C[C@@H](C(=O)O)N(C)C(CCc1ccccc1)C(=O)O (stereo partly shown) [V, 2-[(1-Carboxy-3-phenyl-propyl)-methyl-amino]-4-methyl-pentanoic acid] | > 0.5 | > 50 | > 50 | 
CC(C)CC(N[C@@H](Cc1cncn1COCc1ccccc1)C(=O)NCCc1ccccc1)C(=O)O (single isomer, unassigned) [FM, 2-[2-(3-Benzyloxymethyl-3H-imidazol-4-yl)-1-phenethylcarbamoyl-ethylamino]-4-methyl-pentanoic acid] | > 0.5 | > 50 | > 50 | 
CCC(N[C@@H](Cc1c[nH]cn1)C(=O)O)C(=O)O (stereo partly shown) | > 0.5 | > 50 | > 50 | 
CC(C)CC(N[C@@H](Cc1cncn1Cc1ccc(C(C)(C)C)cc1)C(=O)O)C(=O)O (single isomer, unassigned) [HY, 2-[2-[3-(4-tert-Butyl-benzyl)-3H-imidazol-4-yl]-1-carboxy-ethylamino)-4-methyl-pentanoic acid] |  |  |  | Ki ([1]; Ki class, compounds tested in 5% DMSO, 12 compound concentrations, Ki=Kiapp/(1+[S]/Km), read-out: Human ACE-2 Activity): < 0.1 µM; Ki ([1]; Table 3, very good ACE-2 inhibiting compounds, species not given, read-out: ACE-2 Activity, Ki): 0.05 to 0.1 µM; Ki ([2]; 12 compound concentrations): < 10 µM; Ki ([3]; 12 compound concentrations): < 10 µM
CSCC[C@H](NC(C)C(=O)O)C(=O)O (stereo partly shown) [AM, 2-(1-Carboxy-ethylamino)-4-methylsulfanyl-butync acid] | > 0.5 | > 50 | > 50 | 
CC(C)CC(N[C@@H](Cc1cncn1Cc1cccc2ccccc12)C(=O)O)C(=O)O (single isomer, unassigned) [GL, 2-[1-Carboxy-2-(3-naphthalen-1-ylmethyl-3Himidazol-4-yl)-ethylamino]4-methyl-pentanoic acid] |  | 10 to 50 | 10 to 50 | 
O=C(O)C(CCc1ccccc1)N[C@@H](Cc1c[nH]cn1)C(=O)O (stereo partly shown) [ER, 2-[1-Carboxy-2-(1H-imidazol-4-yl)-ethylamino]4-phenyl-butync acid] |  | > 50 | > 50 | 
CC(C)CC(N[C@@H](Cc1cncn1Cc1ccc(C(=O)O)cc1)C(=O)O)C(=O)O (single isomer, unassigned) [GP, 4-[5-[2-Carboxy-2-(1-carboxy-3-methyl-butylamino)-ethyl]-imidazol-1-ylmethyl]-benzoic acid] |  | > 50 | > 50 | 
CC(C)CC(N[C@@H](Cc1cncn1Cc1ccccc1)C(=O)O)C(=O)O (single isomer, unassigned) [FA, 2-[2-(3-Benzyl-3H-imidazol-4-yl)-1-carboxy-ethylamino]-4-methyl-pentanoic acid] |  | > 50 | > 50 | 
COc1ccc(CCNC(=O)[C@H](Cc2cnc[nH]2)NC(CC(C)C)C(=O)O)cc1 (single isomer, unassigned) [FL, 2-{2-(3H-Imidazol-4-yl)-1-[2-(4-methoxy-phenyl)-ethylcarbamoyl]-ethylamino}4-methyl-pentanoic acid] |  | > 50 | > 50 | 
CC(C)CC(N[C@@H](Cc1cn(Cc2ccccc2)cn1)C(=O)O)C(=O)O (single isomer, unassigned) [DM, 2-[2-(1-Benzyl-1H-imidazol-4-yl)-1-carboxy-ethylamino]-4-methyl-pentanoic acid] |  | > 50 | > 50 | 
CC(C)CC(N[C@@H](Cc1cncn1Cc1ccc(Cl)cc1)C(=O)O)C(=O)O (single isomer, unassigned) [GN, 2-[1-Carboxy-2-[3-(4-chloro-benzyl)-3H-imidazol-4-yl]-ethylamino]4-methyl-pentanoic acid] |  | > 50 | > 50 | 
2-[2-(3-Benzyl-3H-imidazol-4-yl)-1-carboxy-ethylamino]-butync acid [GH] |  | > 50 | > 50 | 
O=C(O)C(Cc1ccccc1)NC(Cc1cncn1Cc1ccccc1)C(=O)O (stereo not shown) [GE, 3-(3-Benzyl-3H-imidazol-4-yl)-2-(1-carboxy-2-phenyl-ethylamino)-propronic acid] |  | > 50 | > 50 | 
CC(C)CC(N[C@@H](Cc1c[nH]cn1)C(=O)Nc1ccc([N+](=O)[O-])cc1)C(=O)O (single isomer, unassigned) [EY, 2-[2-(1H-Imidazol-4-yl)-1-(4-nitro-phenylcarbamoyl)ethylamino]-4-methyl-pentanoic acid] |  | > 50 | > 50 | 
CC(C)CC(N[C@@H](Cc1c[nH]cn1)C(N)=O)C(=O)O (single isomer, unassigned) [EW, 2-[1-Carbamoyl-2-(1H-imidazol-4-yl)-ethylamino]4-methyl-pentanoic acid] |  | > 50 | > 50 | 
CC(C)CC(N[C@H](Cc1c[nH]cn1)C(=O)O)C(=O)O (single isomer, unassigned) [BJ, 2-[1-Carboxy-2-(1H-imidazol-4-yl)-ethylamino]4-methyl-pentanoic acid] |  | 10 to 50 | > 50 | 
CC(C)CC(N[C@@H](CNc1ccccc1)C(=O)O)C(=O)O (single isomer, unassigned) [FJ, 2-(1-Carboxy-2-phenylamino-ethylamino)-4-methyl-pentanoic acid] |  | > 50 | > 50 | 
CCCCC(CC(=O)O)N[C@@H](Cc1c[nH]cn1)C(=O)O (single isomer, unassigned) [ET, 3-[1-Carboxy-2-(1H-imidazol-4-yl)-ethylamino]heptanoic acid] |  | > 50 | > 50 | 
CC(C)CC(N[C@H](Cc1cn(Cc2ccccc2)cn1)C(=O)O)C(=O)O (stereo partly shown) [CX, 2-[2-(1-Benzyl-1H-imidazol-4-yl)-1-carboxy-ethylamino]-4-methyl-pentanoic acid] |  | 10 to 50 | > 50 | 

Reference: US7045532B2 (Millennium Pharmaceuticals, Inc., priority 1999, dated 2006)
